{"source": "patent US20090023186A1", "about": "“USE OF VALPROIC ACID FOR ENHANCING PRODUCTION OF RECOMBINANT PROTEINS IN MAMMALIAN CELLS” (EXCELLGENE SA, priority 2007, published 2009)", "system": "CHO DG44 cells", "test": "Multiple VPA additions, IgG batch titer by ELISA (Example 3)", "format": "cell-based, Chinese Hamster", "conditions": "day 10 after transfection", "protocol": "10 million suspension-adapted HEK293E cells were resuspended in 0.5 ml of Ex-Cell 293 HEK 293 serum-free medium with 4 mmol/l L-glutamine (Cat. No. 14571C-[…]; Lot No. 6A0093; SAFC Biosciences, Lenexa, Kans., USA, “Ex-Cell” medium; note: “Ex-Cell” medium-as used herein-refers to a medium comprising 4 mmol/l L-glutamine) in a 50-ml filter tube each (TPP AG, Trasadingen, Switzerland; Cat. No. 87050, Lot 20050174). In a separate set, 10 million suspension-adapted CHO DG44 cells were resuspended in 0.5 ml of ProCHO5 serum-free medium with 4 mmol/[…] hypoxanthine and 0.194 g/l thymidine (BioWhittaker (Lonza), Belgium; Cat. No. BE12-[…]; Lot No. 7 MB0040; “ProCHO5” medium; note: “ProCHO5” medium-as used herein-refers to a medium comprising 4 mmol/[…] hypoxanthine and 0.194 g/l thymidine) in a 50-ml filter tube each (TPP AG, Trasadingen, Switzerland; Cat. No. 87050, Lot 20050174). Then 12.5 μg plasmid DNA at a concentration of 1 μg/μl was added in each tube with the following composition 50% (6.25 μg) p-LC (SEQ ID NO: 1) 50% (6.25 μg) p-HC (SEQ ID NO: 3). Plasmid p-LC comprises the genetic information for the production of the light chain of an IgG antibody, plasmid p-HC comprises the genetic information for the production of the heavy chain of an IgG antibody. The particular vector constructs used in the present invention can also be obtained from the inventors. The inventors can be contacted via e-mail at […]. […] In short, Goat anti-human kappa light chain IgG (Biosource) was used for coating the ELISA-plates, and with AP-conjugated goat anti-human gamma chain IgG (Biosource) the synthesized IgG1 was detected. […] Absorption was measured at 405 nm against 490 nm using a microplate reader (SPECTRAmaxTM340; Molecular Devices, Palo Alto, Calif., USA).", "data": [{"smiles": "CCCC(CCC)C(=O)O", "note": "[VPA, valproic acid]", "values": [{"measurement": "Batch titer", "setting": "0.5 mmol/l VPA at day 0", "value": 35.8, "unit": "mg/L"}, {"measurement": "batch titers, direct addition versus slowly increasing concentration", "value": "statistically not different"}, {"measurement": "Batch titer", "setting": "escalating dosage, 0.125 to 0.5 mmol/l in 0.125 mmol/l increments every other day", "value": 37.9, "unit": "mg/L"}]}]}
